Experimental data published in US20180153872A1, “HETEROARYL CARBONITRILES FOR THE TREATMENT OF DISEASE” (OPKO Health, Inc., priority 2015, published 2018).
In brackets after ≈: the same amount, converted by molar mass. Like-named read-outs stand apart in the source and are kept apart here.

How the values were obtained:
[1] = target: NK1 receptor (Meriones unguiculatus, UniProt Q5DUB1); assay: NK1 receptor radioligand binding, gerbil; settings: no unit, Ki in nM
Protocol: (§1) SCH900978 was also tested for NK2 and NK3 receptor activity and in 106 other receptors, transporters, enzymes and ion channels and had greater than 1000 fold lower affinity for these than for the NK1 receptor.

[2] = target: NK1 receptors (Mus musculus, UniProt P30548); assay: NK1 receptor radioligand binding, mouse; settings: no unit, Ki in nM
Chain of NK1 receptors (P30548 whole entry): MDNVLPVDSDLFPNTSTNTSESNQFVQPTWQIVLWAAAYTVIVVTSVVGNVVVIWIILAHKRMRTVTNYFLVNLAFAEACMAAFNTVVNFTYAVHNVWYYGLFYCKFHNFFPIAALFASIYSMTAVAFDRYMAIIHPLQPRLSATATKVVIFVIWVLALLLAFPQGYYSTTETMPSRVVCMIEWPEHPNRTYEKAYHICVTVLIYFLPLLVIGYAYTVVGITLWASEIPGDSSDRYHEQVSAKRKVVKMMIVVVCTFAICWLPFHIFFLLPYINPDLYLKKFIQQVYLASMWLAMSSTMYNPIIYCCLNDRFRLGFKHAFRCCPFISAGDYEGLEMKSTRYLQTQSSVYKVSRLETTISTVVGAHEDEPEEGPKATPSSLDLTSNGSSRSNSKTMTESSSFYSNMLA
Protocol: as §1

[3] = system: 106 other receptors, transporters, enzymes and ion channels; assay: Panel of 106 other receptors, transporters, enzymes and ion channels; assay type: binding
Protocol: as §1

[4] = system: capsaicin-induced cough; assay: Capsaicin-induced cough in conscious guinea pigs; assay type: in vivo; settings: guinea pig
Protocol: Inhalation of the irritant capsaicin induces coughing in both animals and humans, in part by releasing substance P from unmyelinated sensory C fibers in the lung. When administered orally to conscious guinea pigs six hours prior to inhalation of aerosolized capsaicin, SCH900978 attenuated capsaicin-induced cough in a dose-dependent manner (ED90=0.04 mg/kg) (FIG. 2).

[5] = target: T1, NK1 receptor (Canis lupus familiaris, UniProt Q5DUB3); assay: Substance P-elicited blood pressure and minute volume changes in dogs; assay type: in vivo; settings: dog, 0.3 mg/kg oral
T1 construct: from tissue; host or cells: living dog
T1 sequence (Q5DUB3 whole entry): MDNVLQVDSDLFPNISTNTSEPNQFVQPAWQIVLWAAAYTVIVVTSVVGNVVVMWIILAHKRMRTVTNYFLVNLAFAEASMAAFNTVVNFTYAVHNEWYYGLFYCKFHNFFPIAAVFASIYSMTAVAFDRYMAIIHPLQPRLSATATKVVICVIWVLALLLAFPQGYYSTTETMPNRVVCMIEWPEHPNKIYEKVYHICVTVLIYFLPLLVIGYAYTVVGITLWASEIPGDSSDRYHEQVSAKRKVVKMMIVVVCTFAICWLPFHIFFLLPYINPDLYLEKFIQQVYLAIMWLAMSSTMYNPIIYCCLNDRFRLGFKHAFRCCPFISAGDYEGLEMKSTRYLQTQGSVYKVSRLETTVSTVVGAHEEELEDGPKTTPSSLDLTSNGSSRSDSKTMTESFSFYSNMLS

[6] = in vivo
Protocol: A series of in vitro and in vivo studies examined the effects of SCH900978 on cardiovascular, respiratory and CNS functions. No adverse effects were observed. The NOAEL was ≥25 mg/kg in male rats, ≥12.5 mg/kg in female rats and ≥10 mg/kg in male cynomolgus monkeys; each dose was the highest dose tested.

[7] = Pharmacokinetics/toxicokinetics and excretion in rats; assay type: in vivo, rat; settings: for plasma concentration-time profile: single oral dose
From the text: (§2) Urinary excretion was also substantial (approximately 20%).

[8] = Plasma protein binding; assay type: in vitro ADME; settings: all mammals tested and human
From the text: as §2

[9] = Metabolic pathways in the mammals tested; assay type: in vivo
From the text: as §2

[10] = Brain penetration, rats; assay type: in vivo, rat
Protocol: as §2
The extent of brain penetration by SCH 900978 was evaluated after oral administration of SCH 900978 amorphous hydrochloride to female gerbils (0.1 mg/kg), male Sprague Dawley rats (5 mg/kg), and male guinea pigs (0.3 mg/kg).

[11] = Rising single-dose safety, tolerability and pharmacokinetics study in healthy human volunteers; assay type: in vivo
Protocol: A randomized, placebo-controlled, third party blind (within dose level), rising, single-dose escalation study to evaluate the safety, tolerability and pharmacokinetics of SCH900978 in healthy human volunteers was conducted and completed. […] Six subjects received placebo. […] Food had no effect on the oral bioavailability of SCH900978. […] Tmax occurred within 0-4 hours at each dosage strength. Table 2 below provides the mean SCH900978 pharmacokinetic parameters following administration of a single oral dose of 25 mgs of SCH900978 capsule or solution to healthy volunteers.
Table 3 below provides the mean SCH900978 pharmacokinetic parameters following administration of a single oral dose of 50 mgs of SCH900978 to healthy volunteers under fasted and fed conditions.

[12] = Solubility; assay type: physicochemical; settings: pH 7, aqueous buffer
From the text: (§3) The present invention comprises a compound having activity in mammalian cough models and is thus useful in the treatment of cough in mammals, including humans, after oral administration. The present invention comprises an oral formulation of a compound of formula I and pharmaceutically acceptable excipients selected from the group consisting of diluents, binders, disintegrants, wetting agents and lubricants. In a preferred embodiment the pharmaceutical composition comprises a compound of formula I (or IIa-IIc) or II and lactose monohydrate, microcrystalline cellulose, povidone, crospovidone, poloxamer 188 and magnesium stearate. The preferred oral form is a capsule. The amount of active ingredient in the capsule or oral dosage form may range from 1 mg to 250 mgs with a preferred range of 10-150 mg with a more preferred range of 20-100 mg per day in humans. The present invention also relates to an NK-1 antagonist (e.g., Formula II) having a half-life of approximately 10-13 days. The present invention further relates to a method of treating pruritus comprising administering a pharmaceutically effective amount of a compound of formula II having a half-life of 10-13 days to a patient in need of treatment thereof. […] The measured onset melting temperature as measured by differential scanning calorimetry (DSC) is 168.9. […]

[13] = log D, octanol/water; assay type: physicochemical; settings: pH 7.4, octanol/water system
From the text: as §3

[14] = 25 mg solution, single oral dose, n = 5
[15] = 50 mg fasted, single oral dose, n = 6
[16] = 50 mg fed, single oral dose, n = 6

Chain of NK1 receptor (Meriones unguiculatus, UniProt Q5DUB1) (Q5DUB1 whole entry): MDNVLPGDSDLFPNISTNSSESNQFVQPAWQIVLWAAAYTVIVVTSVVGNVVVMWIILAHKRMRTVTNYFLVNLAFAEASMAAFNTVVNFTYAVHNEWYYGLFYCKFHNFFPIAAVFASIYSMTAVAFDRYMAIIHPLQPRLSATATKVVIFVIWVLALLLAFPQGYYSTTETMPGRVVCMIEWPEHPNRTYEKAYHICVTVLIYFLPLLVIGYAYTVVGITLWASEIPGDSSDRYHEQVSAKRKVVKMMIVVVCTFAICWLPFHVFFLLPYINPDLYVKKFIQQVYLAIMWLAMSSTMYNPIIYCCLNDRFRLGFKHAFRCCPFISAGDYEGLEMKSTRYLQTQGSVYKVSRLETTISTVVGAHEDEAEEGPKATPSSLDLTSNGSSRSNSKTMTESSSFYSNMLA

Structure (SMILES): C[C@@H](OC[C@@]1(c2ccccc2)CC[C@](C#N)(n2cn[nH]c2=O)CN1)c1cc(C(F)(F)F)cc(C(F)(F)F)c1 [Compound 42, (3 S,6S)-6-({(1R)-1-[3,5-bis(trifluoromethyl)phenyl]ethoxy}methyl)-3-(5-oxo-1,5dihydro-4H-1,2,4-triazol-4-yl)-6-phenylpiperidine-3-carbonitrile]
- Ki [1]: 0.2 nM
- Ki [2]: 0.76 nM
- affinity for a battery of other receptors, transporters, enzymes or ion channels [3]: does not have significant affinity
- fold lower affinity than for the NK1 receptor ([3]; 106 other receptors, transporters, enzymes and ion channels vs NK1): greater than 1000 fold
- maximal inhibition of capsaicin-induced cough [4]: comparable to that produced by the standard antitussive agents
- ED90, capsaicin-induced cough ([4]; oral, six hours prior to aerosolized capsaicin): 0.04 mg/kg
- inhibition of substance P-elicited increase in minute volume [5]: maximally inhibited
- inhibition of substance P-elicited reduction in blood pressure [5]: maximally inhibited
- NOAEL ([6]; female, rat): ≥ 12.5 mg/kg
- NOAEL ([6]; male, cynomolgus monkey): ≥ 10 mg/kg
- NOAEL ([6]; male, rat): ≥ 25 mg/kg
- systemic exposure after repeated administration ([7]; female and male rats, doses >=25 mg/kg, most likely CYP enzyme induction): decreased following repeated administration
- plasma concentrations over 24 hours after 29th dose versus first dose ([7]; female rats 0.5 to 12.5 mg/kg, male rats 1 to 5 mg/kg): greater
- systemic exposure (AUC) versus dose, single dose ([7]; male rats 0.6 to 500 mg/kg, female rats 0.5 to 250 mg/kg, no further increase at the highest doses): increased with increasing dose
- exposure, effect of sex ([7]; rats): higher in female rats than in male rats
- exposure versus dose ([7]; rats, once daily oral doses for one month): generally increased as the dose increased
- major elimination pathway ([7]; rats, oral administration): excretion into the feces
- plasma concentration-time profile ([7]; rats, listed as SCH 900978): extended absorption of SCH900978 with a long t1/2
- plasma concentration-time profile ([7]; rats, listed as SCH900978): extended absorption of the drug and a long apparent terminal elimination phase half-life
- protein bound [8]: ≥ 99.6%
- major metabolic pathways [9]: oxidation and glucuronidation
- crossing of the blood brain barrier [10]: readily crossed the blood brain barrier
- Tf Mean/% CV ([11]; 25 mg capsule, single oral dose, n = 5): 312^b/0^ hr
- Cmax Mean/% CV ([11]; 25 mg capsule, single oral dose, n = 6): 213/27
- AUC(tf) Mean/% CV [11, 14]: 29900/22
- Tf Mean/% CV [11, 14]: 312/0
- Cmax Mean/% CV ([11]; 25 mg solution, single oral dose, n = 5, adjusted for carryover): 301/21
- AUC(l) Mean/% CV [11, 15]: 88700/23
- AUC(tf) Mean/% CV [11, 15]: 59700/24
- Cmax Mean/% CV [11, 15]: 388/32
- T1/2 Mean/% CV [11, 15]: 309/32
- Tf Mean/% CV [11, 15]: 504/0
- AUC(tf) Mean/% CV [11, 16]: 69000/19
- Tf Mean/% CV [11, 16]: 504/0
- Cmax Mean/% CV ([11]; 50 mg fed, single oral dose, n = 6, adjusted for carryover): 366/23
- bioavailability, solution versus capsule oral formulations ([11]; healthy volunteers): comparable
- effect of food on oral bioavailability ([11]; healthy volunteers): no effect
- safety and tolerability ([11]; healthy volunteers, oral doses up to 50 mg): safe and well tolerated
- absorption and elimination ([11]; healthy volunteers, single oral doses 10, 25, 50 mg): rapidly absorbed and slowly eliminated
- AUC ([11]; human, plasma, oral, 10 mg to 200 mg dose, after a single dose, read-out: AUC plasma blood level): 19000 to 352000 ng·h/mL
- half-life ([11]; human, plasma, oral, human, read-out: t1/2 (half-life)): 10 to 13 days
- Cmax ([11]; human, plasma, oral, 10 mg to 200 mg dosage range, based on values from volunteers given 10, 25 and 50 mg, read-out: Cmax (either calculated or estimated)): 103 to 1480 ng/mL
- Tmax ([11]; human, plasma, oral, each dosage strength 10, 25, 50 mg): 0 to 0.167 days
- AUC ([11]; human, plasma, po, 25 mg, 25 mg capsule, single oral dose, n = 4, read-out: AUC(l) Mean/% CV): 42900 ng·h/mL
- half-life ([11]; human, plasma, po, 25 mg, 25 mg capsule, single oral dose, n = 4, read-out: T1/2 Mean/% CV (converted)): 9.92 days
- AUC ([11]; human, plasma, po, 25 mg, 25 mg capsule, single oral dose, n = 5, read-out: AUC(tf) Mean/% CV): 25700 ng·h/mL
- AUC ([11]; human, plasma, po, 25 mg, 25 mg solution, single oral dose, n = 4, read-out: AUC(l) Mean/% CV): 52600 ng·h/mL
- half-life ([11]; human, plasma, po, 25 mg, 25 mg solution, single oral dose, n = 4, read-out: T1/2 Mean/% CV (converted)): 10.5 days
- AUC ([11]; human, plasma, po, 50 mg, 50 mg fed, single oral dose, n = 4, read-out: AUC(l) Mean/% CV): 97000 ng·h/mL
- half-life ([11]; human, plasma, po, 50 mg, 50 mg fed, single oral dose, n = 4, read-out: T1/2 Mean/% CV (converted)): 13.2 days
- exposure (Cmax and AUC) versus dose ([11]; single oral doses 10, 25, 50 mg): dose related
- solubility [12]: 1.8 µg/mL (≈ 3.34 µM)
- logD [13]: 4.5
